From patent US8481750B2 (Boehringer Ingelheim International GmbH, priority 2009, dated 2013) come the findings set out here.

LFA-1 binding to ICAM-1, sequence (P20701 26-1170): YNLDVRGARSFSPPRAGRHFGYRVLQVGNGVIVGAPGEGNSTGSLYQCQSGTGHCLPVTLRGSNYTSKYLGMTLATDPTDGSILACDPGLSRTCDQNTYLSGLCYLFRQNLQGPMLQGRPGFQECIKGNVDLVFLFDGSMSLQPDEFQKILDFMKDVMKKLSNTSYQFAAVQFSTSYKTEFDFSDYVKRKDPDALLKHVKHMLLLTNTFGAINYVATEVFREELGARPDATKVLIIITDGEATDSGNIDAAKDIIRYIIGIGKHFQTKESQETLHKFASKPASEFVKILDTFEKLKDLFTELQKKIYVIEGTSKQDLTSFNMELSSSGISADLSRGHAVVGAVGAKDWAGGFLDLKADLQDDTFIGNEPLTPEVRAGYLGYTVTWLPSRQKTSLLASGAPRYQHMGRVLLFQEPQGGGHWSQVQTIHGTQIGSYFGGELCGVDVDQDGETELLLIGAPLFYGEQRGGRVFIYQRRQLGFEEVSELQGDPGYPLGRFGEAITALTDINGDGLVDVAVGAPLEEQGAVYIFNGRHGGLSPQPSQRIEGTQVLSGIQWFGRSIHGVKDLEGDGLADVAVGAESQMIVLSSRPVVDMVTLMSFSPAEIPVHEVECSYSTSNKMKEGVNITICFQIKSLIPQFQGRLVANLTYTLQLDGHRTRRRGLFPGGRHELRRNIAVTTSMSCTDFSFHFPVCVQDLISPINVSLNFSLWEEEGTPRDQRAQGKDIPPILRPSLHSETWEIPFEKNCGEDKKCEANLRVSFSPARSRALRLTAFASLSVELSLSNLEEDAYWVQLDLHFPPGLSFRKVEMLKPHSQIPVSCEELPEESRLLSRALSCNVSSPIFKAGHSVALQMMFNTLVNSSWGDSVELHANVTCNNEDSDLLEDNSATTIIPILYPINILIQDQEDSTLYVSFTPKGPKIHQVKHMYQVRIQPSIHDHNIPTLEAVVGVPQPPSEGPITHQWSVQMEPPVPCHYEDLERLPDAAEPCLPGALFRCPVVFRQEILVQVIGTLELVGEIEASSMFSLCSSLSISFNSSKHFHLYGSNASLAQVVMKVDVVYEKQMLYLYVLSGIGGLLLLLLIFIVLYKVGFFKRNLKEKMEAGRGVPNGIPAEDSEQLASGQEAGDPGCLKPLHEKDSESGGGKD
LFA-1 binding to ICAM-1, sequence (P05107 23-769): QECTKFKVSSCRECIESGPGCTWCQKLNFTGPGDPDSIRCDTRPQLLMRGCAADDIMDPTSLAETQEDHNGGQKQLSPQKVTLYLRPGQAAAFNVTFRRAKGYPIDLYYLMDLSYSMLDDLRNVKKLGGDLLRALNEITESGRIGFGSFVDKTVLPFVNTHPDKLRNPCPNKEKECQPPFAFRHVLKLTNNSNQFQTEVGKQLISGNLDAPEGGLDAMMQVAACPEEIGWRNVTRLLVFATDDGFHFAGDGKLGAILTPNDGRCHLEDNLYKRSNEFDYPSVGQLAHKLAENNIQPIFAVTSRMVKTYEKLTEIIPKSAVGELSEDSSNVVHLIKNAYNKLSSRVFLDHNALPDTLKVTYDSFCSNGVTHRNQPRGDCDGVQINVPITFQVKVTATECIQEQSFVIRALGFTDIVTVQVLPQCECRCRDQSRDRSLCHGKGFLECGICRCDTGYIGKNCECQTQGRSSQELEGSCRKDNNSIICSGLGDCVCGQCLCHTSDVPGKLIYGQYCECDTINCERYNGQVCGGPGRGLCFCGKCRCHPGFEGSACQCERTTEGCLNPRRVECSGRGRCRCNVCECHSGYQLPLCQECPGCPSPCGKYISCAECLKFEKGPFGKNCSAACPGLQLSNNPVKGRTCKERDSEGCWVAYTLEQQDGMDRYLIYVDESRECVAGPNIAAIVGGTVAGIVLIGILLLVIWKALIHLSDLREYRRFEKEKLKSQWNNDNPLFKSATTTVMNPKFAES

The experiment concerns the target LFA-1 binding to ICAM-1 (Homo sapiens, UniProt P05107+P20701). The experiment is described as follows: Inhibition of LFA-1 binding to ICAM-1 (LFA-1/Biotin-sICAM-1 AlphaScreen molecular assay). The conditions noted are these: highest compound concentration 1 μM in 1% DMSO, 37° C., 90 minutes. An excerpt:
Assay to Determine Inhibition of LFA-1 Binding to ICAM-1
This assay protocol is designed to study the direct antagonism, by a test compound, of the interaction of ICAM-1 with the Leukointegrin CD18/CD11a (LFA-1).
The LFA-1/Biotin-sICAM-1 molecular assay measures the ability of test compounds to inhibit binding of LFA-1 to Biotinylated-sICAM using AlphaScreen technology (Ref: Wilson, J, Rossi, C P, Carboni, S, Fremaux, C, Perrin, D, Soto, C, Kosco-Vilbois, M, and Scheer, A: A Homogeneous 384-Well High-Throughput Binding Assay for a TNF Receptor Using Alphascreen Technology. J Biomol Screen 2003; 8:522-532) that uses TS2/4(anti-LFA-1)-custom conjugated AlphaLisa acceptor beads and streptavidin-coated donor beads from PerkinElmer. The assay was performed in white OptiPlates-384 in a volume of 60 μL using assay buffer (Dulbecco's PBS containing calcium and magnesium, 2 mM MgCl2, 0.1 mM PMSF, 0.1% BSA, pH 7.1). To each well, Biotin-sICAM was added followed by purified LFA-1 (in buffer of 50 mM triethylamine, 150 mM NaCl, 1% beta octylglucoside, 2 mM MgCl2 neutralized to pH with 1M Tris-HCl, pH 7.5). For compound testing, compound was added in 5 uL to the above in 25 uL. LFA-1 and Biotin-sICAM-1 were used at concentrations that would yield a signal to background ratio of 8-10. The highest concentration of compound was 1 μM in 1% DMSO. Positive controls were wells without compound containing LFA-1, while blanks were wells without both compound and LFA-1. Plates were mixed and incubated at 37° C. for 90 minutes. This was followed by addition of 15 μL/well TS2/4-congugated acceptor beads diluted in PBS containing 0.1% BSA for a final concentration of 10 μg/mL. The plates were mixed and incubated in the dark for 30 minutes at room temperature followed by addition of 15 μL/well streptavidin-coated donor beads diluted in PBS containing 0.1% BSA at a final concentration of 15 μg/mL. The plates were mixed and incubated in the dark for 60 minutes at room temperature and then read on an EnVision Multilabel Reader using AlphaScreen 384-well OptiPlate protocol.
(In general: In Alpha technology, singlet oxygen from a donor bead excites a nearby acceptor bead.)
Usually IC50 stands for the concentration that inhibits the measured activity by half. `C[C@@]1(Cc2ccc(C#N)cc2)C(=O)N(c2cc(Cl)cc(Cl)c2)c2ncc(C(=O)NC3(C(=O)NC4(c5cc(C(=O)N6CCN(S(C)(=O)=O)CC6)ccn5)CC4)CC3)n21` [compound 89] displayed an IC50 of 1.4 nM. Turning to `C[C@@]1(Cc2ccc(C#N)cc2)C(=O)N(c2cc(Cl)cc(Cl)c2)c2ncc(C(=O)NC3(C(=O)NC4(c5ccc(C(=O)N6CCC6)cn5)CC4)CC3)n21` [compound 90], the IC50 turned out to be 0.29 nM. In the case of `C[C@@H](CO)NC(=O)c1ccc(C2(NC(=O)C3(NC(=O)c4cnc5n4[C@](C)(Cc4ccc(C#N)cc4)C(=O)N5c4cc(Cl)cc(Cl)c4)CC3)CC2)nc1` [compound 91] it was 0.81 nM; in that of `C[C@@]1(Cc2ccc(C#N)cc2)C(=O)N(c2cc(Cl)cc(Cl)c2)c2ncc(C(=O)NC3(C(=O)NC4(c5cccc(C(=O)NCc6ccccn6)n5)CC4)CC3)n21` [compound 92], 1.3 nM; in that of `C[C@@]1(Cc2ccc(C#N)cc2)C(=O)N(c2cc(Cl)cc(Cl)c2)c2ncc(C(=O)NC3(C(=O)NC4(c5ccc(C(=O)NCCc6ccccn6)cn5)CC4)CC3)n21` [compound 93], 0.62 nM. In the case of `C[C@@]1(Cc2ccc(OC(F)(F)F)cc2)C(=O)N(c2cc(Cl)cc(Cl)c2)c2ncc(C(=O)NC3(C(=O)NC4(c5ccc(C(N)=O)cn5)CC4)CC3)n21` [compound 94] it was 1.5 nM; in that of `C[C@@]1(Cc2ccc(C#N)cc2)C(=O)N(c2cc(Cl)cc(Cl)c2)c2ncc(C(=O)NC3(C(=O)NC4(c5cc(C(=O)NCCc6cccnc6)ccn5)CC4)CC3)n21` [compound 95], 1 nM; in that of `C[C@@]1(Cc2ccc(C#N)cc2)C(=O)N(c2cc(Cl)cc(Cl)c2)c2ncc(C(=O)NC3(C(=O)NC4(c5cc(C(=O)NCC(O)CO)ccn5)CC4)CC3)n21` (stereo partly drawn) [compound 96], 0.74 nM. For `C[C@@]1(Cc2ccc(C#N)cc2)C(=O)N(c2cc(Cl)cc(Cl)c2)c2ncc(C(=O)NC3(C(=O)NC4(c5cc(C(=O)N6CCNCC6)ccn5)CC4)CC3)n21` [compound 97], the IC50 was found to be 1 nM.

Turning to `C[C@@]1(Cc2ccc(C#N)cc2)C(=O)N(c2cc(Cl)cc(Cl)c2)c2ncc(C(=O)NC3(C(=O)NC4(c5cccc(C(N)=O)n5)CC4)CC3)n21` [compound 98], the IC50 came out at 1.1 nM.

With `C[C@H](O)CNC(=O)c1ccc(C2(NC(=O)C3(NC(=O)c4cnc5n4[C@](C)(Cc4ccc(C#N)cc4)C(=O)N5c4cc(Cl)cc(Cl)c4)CC3)CC2)nc1` [compound 99], the IC50 amounted to 0.52 nM. In the case of `COCCNC(=O)c1ccnc(C2(NC(=O)C3(NC(=O)c4cnc5n4[C@](C)(Cc4ccc(C#N)cc4)C(=O)N5c4cc(Cl)cc(Cl)c4)CC3)CC2)c1` [compound 100] it was 0.9 nM. For the compound `C[C@@]1(Cc2ccc(C#N)cc2)C(=O)N(c2cc(Cl)cc(Cl)c2)c2ncc(C(=O)NC3(C(=O)NC4(c5ccc(C(=O)N6CCCC(C(N)=O)C6)cn5)CC4)CC3)n21` (stereo partly drawn) [compound 101], the half-inhibitory concentration (IC50) came out at 0.42 nM. In the case of `C[C@@H](NC(=O)c1ccc(C2(NC(=O)C3(NC(=O)c4cnc5n4[C@](C)(Cc4ccc(C#N)cc4)C(=O)N5c4cc(Cl)cc(Cl)c4)CC3)CC2)nc1)C(N)=O` [compound 102] it was 0.37 nM. In the case of `C[C@@]1(Cc2ccc(C#N)cc2)C(=O)N(c2cc(Cl)cc(Cl)c2)c2ncc(C(=O)NC3(C(=O)NC4(c5cc(C(=O)N6CC[C@H](O)C6)ccn5)CC4)CC3)n21` [compound 103] it was 0.75 nM; in that of `C[C@@]1(Cc2ccc(C#N)cc2)C(=O)N(c2cc(Cl)cc(Cl)c2)c2ncc(C(=O)NC3(C(=O)NC4(c5cccc(C(=O)N6CCC6)n5)CC4)CC3)n21` [compound 104], 2.3 nM. In the case of `CC(C)(CO)NC(=O)c1ccnc(C2(NC(=O)C3(NC(=O)c4cnc5n4[C@](C)(Cc4ccc(C#N)cc4)C(=O)N5c4cc(Cl)cc(Cl)c4)CC3)CC2)c1` [compound 105] it was 0.65 nM; in that of `CN(C)CCNC(=O)c1ccc(C2(NC(=O)C3(NC(=O)c4cnc5n4[C@](C)(Cc4ccc(C#N)cc4)C(=O)N5c4cc(Cl)cc(Cl)c4)CC3)CC2)nc1` [compound 106], 0.82 nM; in that of `C[C@@]1(Cc2ccc(C#N)cc2)C(=O)N(c2cc(Cl)cc(Cl)c2)c2ncc(C(=O)NC3(C(=O)NC4(c5cc(C(=O)NCCC(N)=O)ccn5)CC4)CC3)n21` [compound 107], 0.3 nM.

Consider `CC(C)(NC(=O)c1ccnc(C2(NC(=O)C3(NC(=O)c4cnc5n4[C@](C)(Cc4ccc(C#N)cc4)C(=O)N5c4cc(Cl)cc(Cl)c4)CC3)CC2)c1)c1ccccc1` [compound 108], for which the IC50 stood at 3 nM. In the case of `C[C@@]1(Cc2ccc(C#N)cc2)C(=O)N(c2cc(Cl)cc(Cl)c2)c2ncc(C(=O)NC3(C(=O)NC4(c5ccc(C(=O)NCCn6ccnc6)cn5)CC4)CC3)n21` [compound 109] it was 0.41 nM. As to `C[C@@]1(Cc2ccc(C#N)cc2)C(=O)N(c2cc(Cl)cc(Cl)c2)c2ncc(C(=O)NC3(C(=O)NC4(c5cc(C(=O)N6CCCCC6)ccn5)CC4)CC3)n21` [compound 110], the IC50 came to 3.4 nM. Consider `CN(C)C1CCN(C(=O)c2cccc(C3(NC(=O)C4(NC(=O)c5cnc6n5[C@](C)(Cc5ccc(C#N)cc5)C(=O)N6c5cc(Cl)cc(Cl)c5)CC4)CC3)n2)C1` (stereo partly drawn) [compound 111], for which the IC50 worked out at 2.5 nM. In turn, `C[C@@]1(Cc2ccc(C#N)cc2)C(=O)N(c2cc(Cl)cc(Cl)c2)c2ncc(C(=O)NC3(C(=O)NC4(c5ccc(C(=O)NCCC(N)=O)cn5)CC4)CC3)n21` [compound 112] came in with an IC50 of 0.28 nM. In the case of `CC(=O)N1CCN(C(=O)c2ccnc(C3(NC(=O)C4(NC(=O)c5cnc6n5[C@](C)(Cc5ccc(C#N)cc5)C(=O)N6c5cc(Cl)cc(Cl)c5)CC4)CC3)c2)CC1` [compound 113] it was 1.3 nM.

`C[C@@]1(Cc2ccc(C#N)cc2)C(=O)N(c2cc(Cl)cc(Cl)c2)c2ncc(C(=O)NC3(C(=O)NC4(c5cc(C(=O)NC6CCC6)ccn5)CC4)CC3)n21` [compound 114] yielded an IC50 of 0.84 nM. For `C[C@@]1(Cc2ccc(C#N)cc2)C(=O)N(c2cc(Cl)cc(Cl)c2)c2ncc(C(=O)NC3(C(=O)NC4(c5cc(C(=O)N6CCC[C@@H]6C(N)=O)ccn5)CC4)CC3)n21` [compound 115] the value was 0.33 nM; for `CC(=O)N(C)C1CCN(C(=O)c2ccc(C3(NC(=O)C4(NC(=O)c5cnc6n5[C@](C)(Cc5ccc(C#N)cc5)C(=O)N6c5cc(Cl)cc(Cl)c5)CC4)CC3)nc2)C1` (stereo partly drawn) [compound 116], 0.75 nM. In the case of `CC(C)(O)CNC(=O)c1ccc(C2(NC(=O)C3(NC(=O)c4cnc5n4[C@](C)(Cc4ccc(C#N)cc4)C(=O)N5c4cc(Cl)cc(Cl)c4)CC3)CC2)nc1` [compound 117] it was 0.37 nM; in that of `C[C@@H](NC(=O)c1cccc(C2(NC(=O)C3(NC(=O)c4cnc5n4[C@](C)(Cc4ccc(C#N)cc4)C(=O)N5c4cc(Cl)cc(Cl)c4)CC3)CC2)n1)c1ccccc1` [compound 118], 33 nM; in that of `C[C@@]1(Cc2ccc(C#N)cc2)C(=O)N(c2cc(Cl)cc(Cl)c2)c2ncc(C(=O)NC3(C(=O)NC4(c5ccc(C(=O)N6CCCC6)cn5)CC4)CC3)n21` [compound 119], 0.72 nM. Turning to `CC(CO)NC(=O)c1ccnc(C2(NC(=O)C3(NC(=O)c4cnc5n4[C@](C)(Cc4ccc(C#N)cc4)C(=O)N5c4cc(Cl)cc(Cl)c4)CC3)CC2)c1` (stereo partly drawn) [compound 120], the IC50 was determined as 0.75 nM. In the case of `CC(=O)NCCNC(=O)c1ccc(C2(NC(=O)C3(NC(=O)c4cnc5n4[C@](C)(Cc4ccc(C#N)cc4)C(=O)N5c4cc(Cl)cc(Cl)c4)CC3)CC2)nc1` [compound 121] it was 0.37 nM. In the case of `C[C@@]1(Cc2ccc(C#N)cc2)C(=O)N(c2cc(Cl)cc(Cl)c2)c2ncc(C(=O)NC3(C(=O)NC4(c5cc(C(=O)N6CCC[C@H]6C(N)=O)ccn5)CC4)CC3)n21` [compound 122] it was 1.7 nM.

`C[C@@]1(Cc2ccc(C#N)cc2)C(=O)N(c2cc(Cl)cc(Cl)c2)c2ncc(C(=O)NC3(C(=O)NC4(c5cccc(C(=O)NC6CC6)n5)CC4)CC3)n21` [compound 123] registered an IC50 of 0.34 nM. For `CN(C)C(=O)c1ccc(C2(NC(=O)C3(NC(=O)c4cnc5n4[C@](C)(Cc4ccc(C#N)cc4)C(=O)N5c4cc(Cl)cc(Cl)c4)CC3)CC2)nc1` [compound 124], the IC50 turned out to be 2.1 nM. `C[C@@]1(Cc2ccc(C#N)cc2)C(=O)N(c2cc(Cl)cc(Cl)c2)c2ncc(C(=O)NC3(C(=O)NC4(c5cccc(C(=O)N6CCCCC6CO)n5)CC4)CC3)n21` (stereo partly drawn) [compound 125] gave an IC50 of 0.28 nM. `C[C@@]1(Cc2ccc(C#N)cc2)C(=O)N(c2cc(Cl)cc(Cl)c2)c2ncc(C(=O)NC3(C(=O)NC4(c5ccc(C(=O)NC6CC6)cn5)CC4)CC3)n21` [compound 126] displayed an IC50 of 2.6 nM. For `C[C@@]1(Cc2ccc(C#N)cc2)C(=O)N(c2cc(Cl)cc(Cl)c2)c2ncc(C(=O)NC3(C(=O)NC4(c5cccc(C(=O)NCC(N)=O)n5)CC4)CC3)n21` [compound 127] the value was 0.5 nM.
